# Measurements published in patent publication US20140193510A1, “Polymer-Agent Conjugates, Particles, Compositions, and Related Methods of Use” (CERULEAN PHARMA INC., priority 2009, published 2014).
# Several values for one entry are separate records, joined by “and”; a condition that tells them apart may be missing. Equal entries are not always repeated. Entries after “also recorded” stand apart in the source; their conditions may differ. Where two headings read alike, the source gives them in different places.
# Legend:
# [1] = Tolerability in normal non-tumor-bearing mice (body weight, CBC, serum chemistry, ataxia, sciatic nerve; Example 47); format: in vivo, C57BL/6 mice; details: for ataxia: n=5
# Experimental: Treatments were administered intravenously on a q7dx2 schedule, i.e., two treatments seven days apart (the first treatment was on Day one). The study ended on Day 14, six days after the 2nd treatment. Blood was collected for complete blood count (CBC) and serum chemistry. Leg muscles were collected so that nerve degeneration could be assessed from the sciatic nerve.
# [2] = Body weight and ataxia in MDA-MB-435 tumor-bearing mice (Example 46); details: for ataxia: weekly x two injections
# Experimental: The treatments were administered IV into the tail vein at the dose volumes stated above, beginning on post-implantation Day 21, when the mean tumor volume was 150 mm^3 or, for one group, on Day 37, when the mean tumor volume for that group was 433 mm^3.
# [3] = test system: B16.F10 cells; assay: Efficacy in B16.F10 murine melanoma model (Example 43); format: in vivo, C57BL/6 mice; details: q4dq3dx3 (three injections over 2 weeks), 15 mg/kg IV
# Experimental: Refer to table for detailed description of formulations.
# Tumor volume was calculated with the following equation: (width×width×length)/2 mm^3.
# [4] = Body weight and ataxia in SK-OV-3 tumor-bearing mice (Example 45); format: in vivo, CD-1 nude mice; details: weekly x two injections
# [5] = Body weight changes in A2780 tumor-bearing mice (Example 42); format: in vivo, CD-1 nude mice; details: for % of initial body weight: Day 36
# Experimental: This formulation was made within 30 minutes of administration to mice.
# The treatments were administered 2 times, on Day 8 and Day 15 (weekly×2 injections) for n=8 mice per group. […] On Day 50, the study was ended for all remaining mice. When removed from the study, mice were euthanized by CO2 inhalation.
# [6] = test system: MDA-MB-435 cells; assay: In vivo efficacy, MDA-MB-435 melanoma human xenograft model (Example 46); design: species or system CD-1 nude mice; details: as of Day 76, weekly x two injections
# Experimental: MDA-MB-435 cells were grown in culture to confluency in RPMI medium containing 10% FBS and 1% penicillin/streptomycin and then resuspended in RPMI (passage 4) for implantation into mice. A volume of 0.1 mL containing 4.0×10^6 cells MDA-MB-435 cells were implanted into the mammary gland of female CD-1 nude mice on Day 1.
# [7] = Tolerability (body weight) in B16.F10 murine melanoma model (Example 43); format: in vivo, C57BL/6 mice
# [8] = mouse, in vivo
# Experimental: The stock solution was diluted further with PBS to 0.6, 1.5, 3, 4.5 and 6 mg/mL (for a corresponding dose of 6, 15, 30, 45 and 60 mg/kg) so that all the groups received the same amount of ethanol, polysorbate 80, water and PBS. […] 5) PEGylated O-acetyl-5050-PLGA nanoparticle vehicle at the highest concentration of 6 mg/mL.
# The treatments were administered IV into the tail vein at a dose volume of 10 mL/kg, beginning on post-implantation Day 5, when the mean tumor volume was 55 mm^3. The treatments were administered 4 times, on Days 5, 8, 12 and 15 (biweekly×4 injections). On Day 17 post-tumor implantation, mice were euthanized by CO2 inhalation according to the procedure guideline. Blood was collected by cardiac puncture and put into ethylenediaminetetraacetic acid (EDTA) or serum separation blood collection tubes. Whole blood was analyzed on the day of collection for CBC analyses. After the blood clotted and was centrifuged, serum was frozen immediately on dry ice for serum chemistry analyses.
# Tolerability was determined by changes in body weight, expressed as a percent of the initial body weight on post-implantation Day 5. […] Other indices of toxicity, complete blood count (CBC) and serum chemistry were determined from blood collected from animals that were euthanized on Day 17 by CO2 inhalation, according to the procedure guideline.
# [9] = Body weight in HCT-116 tumor bearing mice (Example 44); format: in vivo, CD-1 nude mice; details: 30 mg/kg IV
# Experimental: The treatments were administered IV into the tail vein at the respective dose volumes (refer to previous paragraph), beginning on post-implantation Day 13, when the mean tumor volume was 131 mm^3.
# [10] = test system: B16.F10 cells; assay: CellTiter-Glo Luminescent Cell Viability Assay (cytotoxicity of nanoparticles); format: cell-based; details: 24, 48 and 72 hours of incubation
# Experimental: B16.F10 cells, grown to 85-90% confluency in 150 cm^2 flasks (passage <30), were resuspended in media (MEM-alpha, 10% HI-FBS, 1× antibiotic-antimycotic) and added to 96-well opaque-clear bottom plates at a concentration of 1500 cells/well in 200 μL/well. The cells were incubated at 37° C. with 5% CO2 for 24 hours. The following day, serial dilutions of 2× concentrated particles and 2× concentrated free drug were made in 12-well reservoirs with media to specified concentrations. The media in the plates was replaced with 100 μL of fresh media and 100 μL of the corresponding serially diluted drug. Three sets of plates were prepared with duplicate treatments. Following 24, 48 and 72 hours of incubation at 37° C. with 5% CO2, the media in the plates was replaced with 100 μL of fresh media and 100 μL of CTG solution, and then incubated for 5 minutes on a plate shaker at room temperature set to 450 rpm and allowed to rest for 15 minutes. Viable cells were measured by luminescence using a microtiter plate reader. The data was plotted as viability vs. concentration and standardized to untreated cells.
molecule,measurement,setting,value
"CC(=O)O[C@@]12CO[C@@H]1C[C@H](O)[C@@]1(C)C(=O)[C@H](O)C3=C(C)[C@@H](OC(=O)[C@H](O)[C@@H](NC(=O)OC(C)(C)C)c4ccccc4)C[C@@](O)([C@@H](OC(=O)c4ccccc4)[C@H]21)C3(C)C [Free docetaxel, docetaxel]",body weight more than the initial on Day 14,[1]; 30 mg/kg IV q7dx2,3%
same,ataxia,[1]; 30 mg/kg IV q7dx2,0%
same,body weight more than the initial on Day 14,[1]; 45 mg/kg IV q7dx2,2%
same,ataxia,[1]; 45 mg/kg IV q7dx2,20%
same,Neutrophil mean,"[1]; 60 mg/kg IV q7dx2, Day 14",470 cells/μL
same,"weight lost after the second treatment, by the end of the study","[1]; 60 mg/kg IV q7dx2, Day 14",19%
same,ataxia,[1]; 60 mg/kg IV q7dx2,100%
same,effect on serum chemistry parameters,"[1]; q7dx2, Day 14",did not affect any serum chemistry parameter at doses up to 60 mg/kg
same,mice observed to develop ataxia,"[1]; q7dx2, n=5/group, dose in the value",no mice in the 30 mg/kg group were seen to develop ataxia or any overt signs of nerve damage; also recorded: One mouse in the 45 mg/kg group was observed to develop ataxia on Day 14; also recorded: Five out of five mice in the 60 mg/kg group was observed to develop ataxia
same,ataxia,[2]; 30 mg/kg IV,did not cause ataxia
same,body weight loss,"[2]; 60 mg/kg IV, Days 21 and 28 (mean tumor size 150 mm^3 at start)",greater than 20%
same,ataxia,"[2]; 60 mg/kg IV, listed as docetaxel",developed ataxia
same,ataxia,"[2]; 60 mg/kg IV, listed as free docetaxel",Ataxia was observed four days after the second treatment
same,Tumor growth inhibition (TGI),[3],90%
same,Maximum body weight loss,[4]; 30 mg/kg IV,13%
same,ataxia,[4]; 30 mg/kg IV,did not cause ataxia
same,body weight loss,[4]; 60 mg/kg IV,greater than 20%
same,Maximum body weight loss,[5]; 15 mg/kg IV weekly x 2,7%
same,% of initial body weight,[5]; 15 mg/kg,113±11%
same,Maximum body weight loss,[5]; 30 mg/kg IV weekly x 2,10%
same,% of initial body weight,[5]; 30 mg/kg,105±9%
same,TGI compared with PEGylated nanoparticles,[6]; listed as docetaxel,docetaxel at a dose of 30 mg/kg is equivalent to PEGylated nanoparticles at a dose of 60 mg/kg
same,TGI compared with PEGylated nanoparticles,[6]; listed as free docetaxel,"the treatment at a dose of 15 mg/kg resulted in the same TGI for free docetaxel and PEGylated nanoparticles; also recorded: At a dose of 30 mg/kg, the TGI for free docetaxel was greater than that for PEGylated nanoparticles; also recorded: At a dose of 60 mg/kg, free docetaxel was equivalent to PEGylated nanoparticles until the free drug group was removed from the study"
same,Maximum body weight loss,"[7]; q3dq4dx3, 15 mg/kg IV, listed as Docetaxel",11% and 12%
same,Maximum body weight loss,"[7]; q4dq3dx3, 15 mg/kg IV",11%
same,Maximum body weight loss,"[7]; q7dx3, 30 mg/kg IV",11%
same,Maximum body weight loss,"[7]; q14dx2, 60 mg/kg IV, listed as Docetaxel",0%
same,Maximum body weight loss,"[7]; q14dx2, 60 mg/kg IV, listed as docetaxel",did not show any body weight loss
same,Maximum body weight loss,"[7]; three times, once every week, 15 mg/kg (as worded)",11%
same,effect on serum chemistry parameters,[8],did not affect any serum chemistry parameter at doses up to 30 mg/kg
same,Maximum body weight loss,[9],14%
paclitaxel-5050 PLGA-O-acetyl,growth of B16.F10 cells (viability),[10],inhibited the growth of B16.F10 cells in a dose and time dependent manner
docetaxel-5050 PLGA-O-acetyl,growth of B16.F10 cells (viability),[10],inhibited the growth of B16.F10 cells in a dose and time dependent manner
doxorubicin 5050 PLGA amide,growth of B16.F10 cells (viability),[10],inhibited the growth of B16.F10 cells in a dose and time dependent manner
